# Measurements taken from patent US20230346717A1, “IDENTIFICATION AND USE OF COMPOUNDS IN THE TREATMENT OR PREVENTION OF SEVERE ACUTE RESPIRATORY SYNDROME CORONAVIRUS 2” (priority 2020, published 2023).
# Structures can show the parent of a compound that is named as a salt. Where two headings read alike, the source gives them in different places.
# Experiments:
# Type in all cases: cell-based, human
# CTSL = conditions: ARPE-19/HPV-16 cells, 10 μM drug, 24 hours
# Excerpt: Each drug group profile was created using a novel Weighted Influence Model, Rank of Ranks (WIMRR) method which underscores the rank of each probe set across the entire gene expression profile rather than the specific change in expression level. WIMRR takes the average rank of each probe set across all of the members of the group and then re-ranks the probe sets from smallest average rank to largest average rank. A gene-set enrichment metric based on the Kolmogorov-Smirnov (KS) statistic.
# Applicant analyzed expression profile of CTSL across all 466 drugs tested. In order to find positive hits and selected only those results that caused decrease of CTSL expression by at least 33% (1.5-fold down).
# CTSH = assay: Gene expression assay, lysosome gene CTSH; conditions: probe 202295_s_at; ARPE-19/HPV-16, 10 μM, 24 h
# Excerpt: (§1) A drug screen was used to test agents having the potential to treat or prevent SARS-CoV-2 infection. The retinal pigment epithelia cell line, ARPE-19/HPV-16, was chosen to establish a database of drug profiles because of its non-cancerous, human origin, with a normal karyotype. ARPE-19/HPV-16 can be easily grown as monolayer in 96-well plates and expresses a variety of well known, neuronal, cell surface receptors that include the dopamine receptor D2, the serotonin receptors 1A, 2A, and 2C, the muscarinic receptor M3, and the histamine receptor H1.
# (§2) Cell lines were propagated according to supplier's specifications (ATCC Manassas, VA). Compounds were obtained from Sigma (St. Louis, MO) or Vanda Pharmaceuticals (Washington, DC). Cells were aliquoted on 96-well plates (˜2×10^5 cells/well) and incubated for 24 hours prior to providing fresh media with a drug, or the drug vehicle (water, dimethyl sulfoxide, ethanol, methanol, or phosphate-buffered saline solution). Drugs were diluted 1000-fold in buffered Advanced D-MEM/F-12 culture medium (Invitrogen, Carlsbad, CA) containing nonessential amino acids and 110 mg/L sodium pyruvate. […]
# (§3) Cells were harvested 24 hours after treatment and RNA was extracted using the RNeasy 96 protocol (Qiagen, Valencia, CA). […] A total of 708 microarrays were analyzed including 74 for 18 antipsychotics, 499 for 448 other compounds, and 135 for vehicle controls. […]
# GALC = assay: Gene expression assay, lysosome gene GALC; conditions: probe 204417_at; ARPE-19/HPV-16, 10 μM, 24 h
# Excerpt: as §1, §2, §3
# RNASET2 = assay: Gene expression assay, lysosome gene RNASET2; conditions: probe 217983_s_at; ARPE-19/HPV-16, 10 μM, 24 h
# Excerpt: as §1, §2, §3
# CTSK = assay: Gene expression assay, lysosome gene CTSK; conditions: probe 202450_s_at; ARPE-19/HPV-16, 10 μM, 24 h
# Excerpt: as §1, §2, §3
# GJA1 = assay: Gene expression assay, lysosome gene GJA1; conditions: probe 201667_at; ARPE-19/HPV-16, 10 μM, 24 h
# Excerpt: as §1, §2, §3
# SCARB2 = assay: Gene expression assay, lysosome gene SCARB2; conditions: probe 201647_s_at; ARPE-19/HPV-16, 10 μM, 24 h
# Excerpt: as §1, §2, §3
# AGA = conditions: ARPE-19/HPV-16, 10 μM, 24 h
# MAR3 = assay: Gene expression assay, lysosome gene MAR3; conditions: probe 213256_at; ARPE-19/HPV-16, 10 μM, 24 h
# Excerpt: as §1, §2, §3
# CPQ = assay: Gene expression assay, lysosome gene CPQ; conditions: ARPE-19/HPV-16, 10 μM, 24 h
# Excerpt: as §1
# Cell lines were propagated according to supplier's specifications (ATCC Manassas, VA). Compounds were obtained from Sigma (St. Louis, MO) or Vanda Pharmaceuticals (Washington, DC). Cells were aliquoted on 96-well plates (˜2×10^5 cells/well) and incubated for 24 hours prior to providing fresh media with a drug, or the drug vehicle (water, dimethyl sulfoxide, ethanol, methanol, or phosphate-buffered saline solution). Drugs were diluted 1000-fold in buffered Advanced D-MEM/F-12 culture medium (Invitrogen, Carlsbad, CA) containing nonessential amino acids and 110 mg/L sodium pyruvate. In these conditions, no significant changes of pH were expected, which was confirmed by the monitoring of the pH indicator present in the medium.
# A final 10 μM drug concentration was chosen because it is believed to fit in the range of physiological relevance. Microscopic inspection of each well was conducted at the end of the treatment to discard any samples where cells had morphological changes consistent with apoptosis. It was also verified that the drug had not precipitated in the culture medium.
# Cells were harvested 24 hours after treatment and RNA was extracted using the RNeasy 96 protocol (Qiagen, Valencia, CA). Gene expression for 22,238 probe sets of 12,490 genes was generated with U133A2.0 microarrays following the manufacturer's instructions (Affymetrix, Santa Clara, CA). Drugs were profiled in duplicate or triplicate, with multiple vehicle controls on each plate. A total of 708 microarrays were analyzed including 74 for 18 antipsychotics, 499 for 448 other compounds, and 135 for vehicle controls.
# The raw scan data were first converted to average difference values using MAS 5.0 (Affymetrix). The average difference values of both treatment and control data were set to a minimum threshold of 50 if below 50. For each treatment instance, all probe sets were then ranked based on their amplitude, or level of expression relative to the vehicle control (or average of controls when more than one was used). Amplitude was defined as the ratio of expression (t−v)/[(t+v)/2] where t corresponds to treatment instance and v to vehicle instance. […]
# CTSB = assay: Gene expression assay, lysosome gene CTSB; conditions: probe 213274_s_at; ARPE-19/HPV-16, 10 μM, 24 h
# Excerpt: as §1, §2, §3
# LAMP1 = assay: Gene expression assay, lysosome gene LAMP1; conditions: probe 201551_s_at; ARPE-19/HPV-16, 10 μM, 24 h
# Excerpt: as §1, §2, §3
# PSAP = assay: Gene expression assay, lysosome gene PSAP; conditions: probe 200866_s_at; ARPE-19/HPV-16, 10 μM, 24 h
# Excerpt: as §1, §2, §3
# LGMN = assay: Gene expression assay, lysosome gene LGMN; conditions: probe 201212_at; ARPE-19/HPV-16, 10 μM, 24 h
# Excerpt: as §1, §2, §3
# RAB38 = assay: Gene expression assay, lysosome gene RAB38; conditions: probe 219412_at; ARPE-19/HPV-16, 10 μM, 24 h
# Excerpt: as §1, §2, §3
# N-acetyl-6-sulfatase = assay: Gene expression assay, lysosome gene N-acetyl-6-sulfatase; conditions: probe 212334_at; ARPE-19/HPV-16, 10 μM, 24 h
# Excerpt: as §1, §2, §3
# BCL10 = assay: Gene expression assay, lysosome gene BCL10; conditions: probe 205263_at; ARPE-19/HPV-16, 10 μM, 24 h
# Excerpt: as §1, §2, §3
smiles,measurement,setting,value
NC12CC3CC(CC(C3)C1)C2 [Amantadine Hydrochloride],log2(treated) CTSL,CTSL,9.62 log2
same,"log2 difference (CTSL, treated vs control)",CTSL,−0.70 log2
same,avg_tx (log2) CTSH,CTSH,9.62 log2
same,diff (log2) CTSH,CTSH,−2.51 log2
same,avg_tx (log2) GALC,GALC,6.58 log2
same,diff (log2) GALC,GALC,−2.06 log2
same,avg_tx (log2) RNASET2,RNASET2,8 log2
same,diff (log2) RNASET2,RNASET2,−1.81 log2
same,avg_tx (log2) CTSK,CTSK,7.09 log2
same,diff (log2) CTSK,CTSK,−1.81 log2
same,avg_tx (log2) GJA1,GJA1,11.23 log2
same,diff (log2) GJA1,GJA1,−1.76 log2
same,avg_tx (log2) SCARB2,SCARB2,6.97 log2
same,diff (log2) SCARB2,SCARB2,−1.63 log2
same,avg_tx (log2) AGA,AGA; probe 204332_s_at,9.18 log2
same,diff (log2) AGA,AGA; probe 204332_s_at,−1.39 log2
same,avg_tx (log2) AGA,AGA; probe 204333_s_at,6.57 log2
same,diff (log2) AGA,AGA; probe 204333_s_at,−1.6 log2
same,avg_tx (log2) AGA,AGA; probe 216064_s_at,8.12 log2
same,diff (log2) AGA,AGA; probe 216064_s_at,−1.38 log2
same,avg_tx (log2) MAR3,MAR3,5.55 log2
same,diff (log2) MAR3,MAR3,−1.57 log2
same,avg_tx (log2) CPQ,CPQ; probe 203501_at,6.41 log2
same,diff (log2) CPQ,CPQ; probe 203501_at,−1.55 log2
same,avg_tx (log2) CPQ,CPQ; probe 208454_s_at,7.3 log2
same,diff (log2) CPQ,CPQ; probe 208454_s_at,−1.34 log2
same,avg_tx (log2) CTSB,CTSB,7.75 log2
same,diff (log2) CTSB,CTSB,−1.48 log2
same,avg_tx (log2) LAMP1,LAMP1,7.87 log2
same,diff (log2) LAMP1,LAMP1,−1.4 log2
same,avg_tx (log2) PSAP,PSAP,10.59 log2
same,diff (log2) PSAP,PSAP,−1.36 log2
same,avg_tx (log2) LGMN,LGMN,8.33 log2
same,diff (log2) LGMN,LGMN,−1.35 log2
same,avg_tx (log2) RAB38,RAB38,6.51 log2
same,diff (log2) RAB38,RAB38,−1.3 log2
same,avg_tx (log2) N-acetyl-6-sulfatase,N-acetyl-6-sulfatase,9.71 log2
same,diff (log2) N-acetyl-6-sulfatase,N-acetyl-6-sulfatase,−1.27 log2
same,avg_tx (log2) BCL10,BCL10,7.44 log2
same,diff (log2) BCL10,BCL10,−1.25 log2
